Key:
EV D68 3C protease [1] = target: T1, EV D68 3C protease (Enterovirus D68, UniProt A1E4A3); assay: Fragment ligation screening / FRET assay of fragments and aldehyde 1; assay type: biochemical; details: fragment 19 μM + aldehyde 1 19 μM, 2 h incubation, p<0.05
T1 sequence (A1E4A3 1549-1731): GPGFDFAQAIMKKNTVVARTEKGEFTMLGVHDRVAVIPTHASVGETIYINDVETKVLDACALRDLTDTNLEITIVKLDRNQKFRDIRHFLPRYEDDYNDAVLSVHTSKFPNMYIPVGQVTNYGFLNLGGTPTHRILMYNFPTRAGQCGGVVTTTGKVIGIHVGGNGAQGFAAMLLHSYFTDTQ

EV D68 3C protease [2] = target: T1, EV D68 3C protease; assay: Tryptic digest and MS of protein-inhibitor complex; assay type: binding; details: trypsin digest of protein-inhibitor complex

Structure (SMILES)	Inhibition of the protease in combination with aldehyde 1 compared to the aldehyde alone (EV D68 3C protease [1])	Alkylation of the 13mer peptide containing Cys147 (EV D68 3C protease [2])
CCOC(=O)CC#N [Compound F1, O‐ethyl 2‐cyano‐acetate]	significantly increased inhibition	
CC(=O)CC#N [Compound F4, 3‐oxo‐butane nitrile]	significantly increased inhibition	
CCOC(=O)C=Cc1cccc(C(N)=O)c1 [Compound 13, O‐ethyl 3‐carbamoyl‐cinnamoyl ester]		complete alkylation

Reference: PMC8252737 (Angewandte Chemie (International Ed. in English), 2021)
